What was measured:
[1] = target: D(1A) dopamine receptor (Homo sapiens, UniProt P21728); assay: Antagonist activity at D1R (unknown origin) transfected in HEK293 cells by FLIPR assay
[2] = target: T1, D(2) dopamine receptor (Homo sapiens, UniProt P14416); assay: Antagonist activity at D2R (unknown origin); assay type: functional
[3] = target: Acetylcholinesterase (Electrophorus electricus, UniProt O42275); assay: Inhibition of Electrophorus electricus AChE using ATCI as substrate pre-incubated for 10 mins followed by substrate addition measured after 5 mins by microplate reader analysis
Sequence of Acetylcholinesterase (O42275 whole entry): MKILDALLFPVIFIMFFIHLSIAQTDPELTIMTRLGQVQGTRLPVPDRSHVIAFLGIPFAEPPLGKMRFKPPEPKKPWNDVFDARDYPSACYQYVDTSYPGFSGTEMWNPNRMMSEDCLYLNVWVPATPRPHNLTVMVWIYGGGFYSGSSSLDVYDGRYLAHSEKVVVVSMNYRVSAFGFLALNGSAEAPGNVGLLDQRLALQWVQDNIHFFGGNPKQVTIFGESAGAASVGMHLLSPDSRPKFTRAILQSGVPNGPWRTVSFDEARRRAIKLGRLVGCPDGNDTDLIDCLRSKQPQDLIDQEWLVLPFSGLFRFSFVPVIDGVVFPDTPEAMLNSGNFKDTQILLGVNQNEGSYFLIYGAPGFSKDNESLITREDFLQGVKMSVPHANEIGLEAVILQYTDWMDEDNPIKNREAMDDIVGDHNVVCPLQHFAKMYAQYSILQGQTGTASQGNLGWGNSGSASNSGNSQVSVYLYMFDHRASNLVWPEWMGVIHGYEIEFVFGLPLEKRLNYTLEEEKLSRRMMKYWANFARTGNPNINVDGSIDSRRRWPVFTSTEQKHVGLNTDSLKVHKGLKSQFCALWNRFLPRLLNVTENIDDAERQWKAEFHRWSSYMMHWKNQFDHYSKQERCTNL

[4] = target: Cholinesterase (Equus caballus, UniProt P81908); assay: Inhibition of equine serum BuChE using BTCI as substrate pre-incubated for 10 mins followed by substrate addition measured after 5 mins by microplate reader analysis
Sequence of Cholinesterase (P81908 whole entry): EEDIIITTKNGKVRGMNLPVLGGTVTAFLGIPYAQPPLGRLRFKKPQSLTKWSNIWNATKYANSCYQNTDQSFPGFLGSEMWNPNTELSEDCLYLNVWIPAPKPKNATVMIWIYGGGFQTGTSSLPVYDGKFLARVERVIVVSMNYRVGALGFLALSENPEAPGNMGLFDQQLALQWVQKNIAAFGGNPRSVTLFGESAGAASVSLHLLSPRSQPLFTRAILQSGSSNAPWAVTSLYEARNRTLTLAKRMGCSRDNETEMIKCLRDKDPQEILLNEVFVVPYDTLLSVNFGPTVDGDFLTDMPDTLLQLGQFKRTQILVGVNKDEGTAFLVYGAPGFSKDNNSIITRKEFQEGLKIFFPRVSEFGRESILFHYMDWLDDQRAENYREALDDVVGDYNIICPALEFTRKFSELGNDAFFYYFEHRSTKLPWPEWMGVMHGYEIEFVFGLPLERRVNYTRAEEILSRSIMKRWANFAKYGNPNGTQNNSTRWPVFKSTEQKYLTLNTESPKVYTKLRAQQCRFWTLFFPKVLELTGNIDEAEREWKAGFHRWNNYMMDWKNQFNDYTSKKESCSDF

[5] = system: SH-SY5Y; assay: Neuroprotective activity against human SH-SY5Y cells assessed as increase in BDNF level at 20 uM measured after 48 hrs relative to control; assay type: functional
[6] = system: BV-2; assay: Inhibition of NO production in LPS-induced mouse BV-2 cells incubated for 24 hrs by Griess reagent based microplate reader analysis; assay type: functional, cell-based; details: BV-2, 24 h
[7] = system: BV-2; assay: Potency index, ratio of minocycline IC50 to test compound IC50 for inhibition of NO production in LPS-induced mouse BV-2 cells incubated for 24 hrs by Griess reagent based microplate reader analysis; assay type: functional
[8] = target: Acetylcholinesterase (Electrophorus electricus) (UniProt O42275); assay: Potency index, ratio of (R)-Stephanine IC50 to test compound IC50 for inhibition of Electrophorus electricus AChE using ATCI as substrate pre-incubated for 10 mins followed by substrate addition measured after 5 mins by microplate reader analysis; details: time 15.0 min
Sequence of Acetylcholinesterase (Electrophorus electricus) (O42275 24-633 limits assumed): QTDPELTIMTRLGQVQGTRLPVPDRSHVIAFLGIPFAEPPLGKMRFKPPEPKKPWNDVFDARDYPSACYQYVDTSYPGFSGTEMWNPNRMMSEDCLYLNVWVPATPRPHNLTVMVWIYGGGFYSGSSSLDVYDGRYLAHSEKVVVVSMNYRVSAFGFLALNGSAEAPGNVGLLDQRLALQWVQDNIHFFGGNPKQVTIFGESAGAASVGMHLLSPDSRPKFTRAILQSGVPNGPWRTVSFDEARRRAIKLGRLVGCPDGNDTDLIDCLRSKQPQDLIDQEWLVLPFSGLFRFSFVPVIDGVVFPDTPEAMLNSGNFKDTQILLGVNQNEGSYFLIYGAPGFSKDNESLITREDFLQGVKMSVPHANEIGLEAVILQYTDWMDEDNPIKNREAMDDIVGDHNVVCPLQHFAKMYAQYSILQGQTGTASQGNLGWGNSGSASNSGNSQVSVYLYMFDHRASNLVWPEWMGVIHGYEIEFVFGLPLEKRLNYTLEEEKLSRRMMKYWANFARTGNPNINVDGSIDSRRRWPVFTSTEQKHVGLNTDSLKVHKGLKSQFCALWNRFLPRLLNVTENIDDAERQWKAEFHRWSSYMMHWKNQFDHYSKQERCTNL

[9] = target: Acetylcholinesterase (Electrophorus electricus) (UniProt O42275); assay: Potency index, ratio of (R)-Roemerine IC50 to test compound IC50 for inhibition of Electrophorus electricus AChE using ATCI as substrate pre-incubated for 10 mins followed by substrate addition measured after 5 mins by microplate reader analysis; details: time 15.0 min
[10] = target: Acetylcholinesterase (Electrophorus electricus) (UniProt O42275); assay: Potency index, ratio of (S)-Dicentrine IC50 to test compound IC50 for inhibition of Electrophorus electricus AChE using ATCI as substrate pre-incubated for 10 mins followed by substrate addition measured after 5 mins by microplate reader analysis; details: time 15.0 min
[11] = target: T2, 5-hydroxytryptamine receptor 2C (Homo sapiens, UniProt P28335); assay: Agonist activity at 5-HT2C (unknown origin); assay type: functional
T2 sequence (P28335 whole entry): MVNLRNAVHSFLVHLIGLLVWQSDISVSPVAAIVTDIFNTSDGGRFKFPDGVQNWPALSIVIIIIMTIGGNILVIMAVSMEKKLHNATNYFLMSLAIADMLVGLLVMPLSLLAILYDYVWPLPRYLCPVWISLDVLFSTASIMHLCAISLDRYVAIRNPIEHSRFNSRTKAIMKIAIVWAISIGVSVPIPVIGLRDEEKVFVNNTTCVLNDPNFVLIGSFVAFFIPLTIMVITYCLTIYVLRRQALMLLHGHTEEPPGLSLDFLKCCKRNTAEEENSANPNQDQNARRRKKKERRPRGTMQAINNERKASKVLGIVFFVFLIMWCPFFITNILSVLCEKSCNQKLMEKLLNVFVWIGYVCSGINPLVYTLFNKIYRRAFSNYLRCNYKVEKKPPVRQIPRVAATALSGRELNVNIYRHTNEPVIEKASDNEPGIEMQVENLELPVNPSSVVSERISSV

[12] = target: T3, 5-hydroxytryptamine receptor 2C (Homo sapiens) (UniProt P28335); assay: Agonist activity at 5-HT2C (unknown origin) relative to control; assay type: functional; details: filed as agonist
T3 sequence (whole entry): T2 sequence (P28335 whole entry)

[13] = system: SH-SY5Y; assay: Neuroprotective activity against human SH-SY5Y cells assessed as increase in BDNF level measured after 48 hrs; assay type: functional, cell-based
[14] = target: T4, 5-hydroxytryptamine receptor 2B (Homo sapiens, UniProt P41595); assay: Agonist activity at 5-HT2B (unknown origin); assay type: functional
T4 sequence (P41595 whole entry): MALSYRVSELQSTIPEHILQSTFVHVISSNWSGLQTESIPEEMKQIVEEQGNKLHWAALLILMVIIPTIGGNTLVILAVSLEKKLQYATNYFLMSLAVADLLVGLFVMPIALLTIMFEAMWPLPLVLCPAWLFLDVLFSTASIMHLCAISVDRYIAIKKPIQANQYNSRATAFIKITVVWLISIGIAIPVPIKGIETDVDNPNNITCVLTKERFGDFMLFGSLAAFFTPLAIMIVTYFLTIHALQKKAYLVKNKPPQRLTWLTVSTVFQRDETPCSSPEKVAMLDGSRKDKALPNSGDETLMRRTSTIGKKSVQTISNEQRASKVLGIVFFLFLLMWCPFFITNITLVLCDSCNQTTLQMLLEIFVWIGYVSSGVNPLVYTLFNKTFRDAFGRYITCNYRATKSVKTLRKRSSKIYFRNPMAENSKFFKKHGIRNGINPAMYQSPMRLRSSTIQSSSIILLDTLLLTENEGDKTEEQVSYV

[15] = target: T5, 5-hydroxytryptamine receptor 2A (Homo sapiens, UniProt P28223); assay: Agonist activity at 5-HT2A (unknown origin); assay type: functional
T5 sequence (P28223 whole entry): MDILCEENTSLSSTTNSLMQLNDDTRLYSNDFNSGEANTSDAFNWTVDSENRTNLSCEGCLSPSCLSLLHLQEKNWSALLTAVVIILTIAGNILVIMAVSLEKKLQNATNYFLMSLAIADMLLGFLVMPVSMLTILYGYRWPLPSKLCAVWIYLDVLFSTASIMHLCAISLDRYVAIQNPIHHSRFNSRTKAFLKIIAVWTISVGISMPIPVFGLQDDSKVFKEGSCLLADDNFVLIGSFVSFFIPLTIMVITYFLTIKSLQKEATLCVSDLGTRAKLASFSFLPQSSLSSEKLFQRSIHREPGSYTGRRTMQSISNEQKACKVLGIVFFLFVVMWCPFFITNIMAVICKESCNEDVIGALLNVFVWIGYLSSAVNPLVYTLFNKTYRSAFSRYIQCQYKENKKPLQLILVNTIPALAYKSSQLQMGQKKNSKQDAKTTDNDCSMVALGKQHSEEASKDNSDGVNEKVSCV

[16] = target: T4, 5-hydroxytryptamine receptor 2B; assay: Agonist activity at 5-HT2B (unknown origin) relative to control; assay type: functional; details: filed as agonist
[17] = target: T5, 5-hydroxytryptamine receptor 2A; assay: Agonist activity at 5-HT2A (unknown origin) relative to control; assay type: functional; details: filed as agonist
[18] = Selectivity index, ratio of EC50 for agonist activity at 5-HT2C (unknown origin) to EC50 for agonist activity at 5-HT2B (unknown origin)
[19] = Selectivity index, ratio of EC50 for agonist activity at 5-HT2C (unknown origin) to EC50 for agonist activity at 5-HT2A (unknown origin)
[20] = target: T1, D(2) dopamine receptor; assay: Partial agonist activity at D2R (unknown origin) expressed in HEK293 cells relative to control; assay type: functional, cell-based; details: filed as partial agonist
[21] = target: 5-hydroxytryptamine receptor 7 (Homo sapiens, UniProt P34969); assay: Inverse agonist activity at 5-HT7 (unknown origin); assay type: functional
Sequence of 5-hydroxytryptamine receptor 7 (P34969 whole entry): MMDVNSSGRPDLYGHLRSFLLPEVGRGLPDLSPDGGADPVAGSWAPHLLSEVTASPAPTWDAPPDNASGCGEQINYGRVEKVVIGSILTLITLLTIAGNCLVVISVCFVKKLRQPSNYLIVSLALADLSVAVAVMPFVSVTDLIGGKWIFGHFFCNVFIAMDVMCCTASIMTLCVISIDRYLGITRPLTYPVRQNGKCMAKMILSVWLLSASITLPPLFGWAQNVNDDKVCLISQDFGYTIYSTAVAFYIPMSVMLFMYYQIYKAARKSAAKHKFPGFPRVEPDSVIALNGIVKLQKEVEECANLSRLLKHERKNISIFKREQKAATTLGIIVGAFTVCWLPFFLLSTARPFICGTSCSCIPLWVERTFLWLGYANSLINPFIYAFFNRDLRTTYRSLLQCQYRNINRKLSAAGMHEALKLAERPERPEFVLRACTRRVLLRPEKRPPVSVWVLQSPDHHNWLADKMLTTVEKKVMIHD

[22] = target: T5, 5-hydroxytryptamine receptor 2A; assay: Inverse agonist activity at 5-HT2A (unknown origin); assay type: functional
[23] = target: T2, 5-hydroxytryptamine receptor 2C; assay: Antagonist activity at 5-HT2C (unknown origin); assay type: functional
[24] = target: T2, 5-hydroxytryptamine receptor 2C; assay: Partial agonist activity at human 5-HT2C stably transfected in HEK293T cells measured after 18 to 24 hrs by FLIPR assay; assay type: functional, cell-based
[25] = target: T3, 5-hydroxytryptamine receptor 2C (Homo sapiens); assay: Partial agonist activity at human 5-HT2C stably transfected in HEK293T cells measured after 18 to 24 hrs by FLIPR assay relative to control; assay type: functional, cell-based; details: filed as partial agonist, time 18-24 hrs

T1 sequence (P14416 whole entry): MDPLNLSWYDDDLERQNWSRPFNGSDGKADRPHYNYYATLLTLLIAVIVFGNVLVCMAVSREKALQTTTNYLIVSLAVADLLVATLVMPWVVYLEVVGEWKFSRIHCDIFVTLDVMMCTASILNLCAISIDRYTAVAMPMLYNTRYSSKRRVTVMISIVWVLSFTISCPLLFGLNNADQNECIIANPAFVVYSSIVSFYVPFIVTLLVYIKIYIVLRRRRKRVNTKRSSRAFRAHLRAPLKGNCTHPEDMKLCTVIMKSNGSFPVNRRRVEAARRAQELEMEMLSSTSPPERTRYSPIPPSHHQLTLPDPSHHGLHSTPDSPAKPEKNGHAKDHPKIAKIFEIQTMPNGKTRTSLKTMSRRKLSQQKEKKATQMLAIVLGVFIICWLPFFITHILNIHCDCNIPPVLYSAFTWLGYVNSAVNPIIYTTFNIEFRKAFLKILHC
Sequence of D(1A) dopamine receptor (P21728 whole entry): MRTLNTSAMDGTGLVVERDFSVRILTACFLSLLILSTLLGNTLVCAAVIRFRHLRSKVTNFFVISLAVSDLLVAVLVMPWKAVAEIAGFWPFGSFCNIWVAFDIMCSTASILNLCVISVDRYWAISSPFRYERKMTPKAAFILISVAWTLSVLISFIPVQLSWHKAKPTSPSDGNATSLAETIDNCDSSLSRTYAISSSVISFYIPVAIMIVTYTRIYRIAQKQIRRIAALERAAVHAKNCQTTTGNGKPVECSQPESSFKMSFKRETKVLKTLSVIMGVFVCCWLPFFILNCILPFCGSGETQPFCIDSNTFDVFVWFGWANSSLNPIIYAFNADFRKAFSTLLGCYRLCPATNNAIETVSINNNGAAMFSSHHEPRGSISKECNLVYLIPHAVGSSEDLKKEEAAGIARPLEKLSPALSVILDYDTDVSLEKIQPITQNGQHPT

With `COc1c(O)cc2c3c1-c1ccccc1CC3NCC2` (stereo unspecified) the IC50 [1] was 7.2 µM.
In the case of `CN1CCc2cc3c(c4c2[C@H]1Cc1ccccc1-4)OCO3`, the IC50 [2] is reported as 18.8 µM, the IC50 [3] is reported as 8.32 µM and the IC50 [4] is reported as 2.8 µM. It also gave an Activity [5] of 73%.
`COc1cccc2c1C[C@@H]1c3c(cc4c(c3-2)OCO4)CCN1C` [STEPHANINE] showed an IC50 [2] of 0.85 µM, an IC50 [3] of 11.3 µM and an IC50 [4] of 2.8 µM. The IC50 [6] was 20.3 µM and the “Ratio IC50” value [7] was roughly 4.
`COc1cc2cc3c4c(cc5c(c4c2cc1OC)OCO5)CCN3C` [DEHYDRODICENTRINE] gave an IC50 [3] of 1.09 µM, an IC50 [4] of 5.57 µM and a Ratio IC50 [8] of 4. The Ratio IC50 [9] was 4 and the Ratio IC50 [10] was 4.
Compound `COc1ccc2c(c1)C[C@@H]1c3c(cc4c(c3-2)OCO4)CCN1C` has an IC50 [3] of 11.9 µM and an IC50 [4] of 16.6 µM.
Compound `COc1ccc2c(c1OC)[C@@H](O)[C@@H]1c3c(cc4c(c3-2)OCO4)CCN1C` has an IC50 [3] of 4.3 µM and an IC50 [4] of 22.5 µM.
`Oc1cc2c3c(c1Cl)-c1ccccc1C[C@H]3NCC2` showed an EC50 [11] of 0.304 µM and an Emax [12] of 41.6%.
`COc1ccc2c(c1OC)C[C@@H]1c3c(cc4c(c3-2)OCO4)CCN1C` showed an IC50 [3] of 10.5 µM, an IC50 [4] of 17.4 µM and an IC50 [6] of 5.26 µM. The IC50 [13] was 5.26 µM and the “Ratio IC50” value [7] was 3.
For `Oc1cc2c3c(c1Cl)-c1ccccc1C[C@@H]3NCC2`, the EC50 [11] was 0.0079 µM and the Emax [12] was 89.8%.
`Oc1cc2c3c(c1Cl)-c1ccccc1CC3NCC2` (stereo unspecified) showed an EC50 [11] of 0.0236 µM, an Emax [12] of 102% and an EC50 [14] of 0.278 µM. For the same compound, the EC50 [15] was 0.596 µM, the Emax [16] was 63.5% and the Emax [17] was 44.9%. For the same compound, the Ratio EC50 [18] was 12 and the Ratio EC50 [19] was 25.
`COc1c2c3c(c4c1OCO4)-c1ccccc1C[C@H]3N(C)CC2` showed an IC50 [3] of 39.8 µM and an IC50 [4] of 104 µM.
Work on `COc1cc2c3c(c1OC)-c1ccccc1CC3N(C)CC2` (stereo not drawn) [(+/-)-NUCIFERINE] yielded an Emax [20] of 67%, an EC50 [21] of 0.15 µM and an IC50 [22] of 0.478 µM. For the same compound, the IC50 [23] was 0.131 µM.
In the case of `COc1ccc2c(c1)cc1c3c(cc4c(c32)OCO4)CCN1C`, the IC50 [6] is reported as 31.6 µM.
Work on `COc1cc2c3c(c1OC)-c1ccccc1CC3NCC2` (stereo unspecified) [NORNUCIFERINE] yielded an IC50 [1] of 38.5 µM, an EC50 [24] of 0.308 µM and an Emax [25] of 65.6%.

— ChEMBL document CHEMBL5370537, “Aporphines: A privileged scaffold in CNS drug discovery” (Eur J Med Chem, 2023)
